Patent publication EP1004870A1, “Liquid barriers for assays” (Aurora Biosciences Corporation, priority 1998, dated 2000)
Where “and” joins values, the source holds several entries; their conditions need not be identical. Identical values can stand only once. Like-named read-outs stand apart in the source and are kept apart here.

Biological target: T1, M1 receptor (Homo sapiens, UniProt P11229)
T1 sequence (P11229 1-460): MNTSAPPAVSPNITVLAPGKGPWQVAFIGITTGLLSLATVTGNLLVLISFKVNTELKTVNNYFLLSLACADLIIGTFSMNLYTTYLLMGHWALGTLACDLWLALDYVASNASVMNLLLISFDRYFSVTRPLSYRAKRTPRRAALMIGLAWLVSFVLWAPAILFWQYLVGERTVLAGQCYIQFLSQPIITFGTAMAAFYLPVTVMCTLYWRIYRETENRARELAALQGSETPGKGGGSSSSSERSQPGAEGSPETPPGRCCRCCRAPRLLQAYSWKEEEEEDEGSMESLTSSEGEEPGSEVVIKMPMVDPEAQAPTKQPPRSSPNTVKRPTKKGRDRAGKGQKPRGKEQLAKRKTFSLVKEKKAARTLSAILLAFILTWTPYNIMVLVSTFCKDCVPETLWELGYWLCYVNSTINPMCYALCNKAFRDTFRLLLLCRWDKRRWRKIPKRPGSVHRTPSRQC
Assay: Antagonist assay: beta-lactamase expression in carbachol-stimulated Jurkat C2 cells (CCF2/AM fluorescence read-out), mechanical vs liquid barrier

[1] = Liquid barrier (silicone oil, Dow Corning Silicone 200 Fluid 5.0 cs), cells stimulated with carbachol, 96-well plate
[2] = Mechanical barrier (polystyrene lid), cells stimulated with carbachol, 96-well plate

Row | Compound | Percent inhibition of beta- lactamase expression in C2 cells in response to the presence of the indicated chemical [1] [%] | Percent inhibition of beta- lactamase expression in C2 cells in response to the presence of the indicated chemical [2] [%] | Percent inhibition of beta- lactamase expression in C2 cells in response to the presence of the indicated chemical
1 | C[N+]12CCC(CC1)C(OC(=O)C(O)(c1ccccc1)c1ccccc1)C2 (stereo not drawn) [Clidinium] | – | – | 82% and 91%
2 | CCN(CC)C(C)CN1c2ccccc2Sc2ccccc21 (stereo not drawn) [Ethopropazine] | 43 | 88 | –
3 | Isopropamine | 78 | 91 | –

Further lines, with some results ahead:

Row | Percent inhibition of beta- lactamase expression in C2 cells in response to the presence of the indicated chemical [1] [%] | Percent inhibition of beta- lactamase expression in C2 cells in response to the presence of the indicated chemical [2] [%] | Compound | Percent inhibition of beta- lactamase expression in C2 cells in response to the presence of the indicated chemical
4 | 90 | 91 | C[N+]1(C)CCCC(OC(=O)C(O)(c2ccccc2)c2ccccc2)C1 (stereo not drawn) [Mepenzolate] | –
5 | 95 | 95 | CC(C)[N+](C)(CCOC(=O)C1c2ccccc2Oc2ccccc21)C(C)C [Propantheline] | –
